Values joined by “and” are separate entries in the source; they are usually repeats but may differ in a detail not shown here. Equal values may be shown once. Inconclusive results and toxic doses are left out. Cut-off read from the data, not from the text of the source: active = T/C of 150% or more; inactive = T/C below 125%.
Tested on: L1210 leukemia ip in BDF1 mice, survival T/C
Assay: NCI In Vivo Anticancer Drug Screen. Data for tumor model L1210 Leukemia (intraperitoneal) in B6D2F1 (BDF1) mice
Conditions: endpoint: mean survival time, higher = longer survival
Outline: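 Survival endpoint. Drug-treated group vs vehicle group, expressed as T divided by C. Tumor passaged by transplantation.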

[1] = dose: 100.0 mg/kg/injection, schedule: Q04DX003 (ip), vehicle: saline with Tween-80
[2] = dose: 200.0 mg/kg/injection, schedule: Q04DX003 (ip), vehicle: saline with Tween-80
[3] = dose: 400.0 mg/kg/injection, schedule: Q04DX003 (ip), vehicle: saline with Tween-80
[4] = dose: 50.0 mg/kg/injection, schedule: Q01DX009 (ip), vehicle: saline with Tween-80
[5] = dose: 50.0 mg/kg/injection, schedule: Q04DX003 (ip), vehicle: saline with Tween-80
[6] = dose: 100.0 mg/kg/injection, schedule: Q01DX009 (ip), vehicle: saline with Tween-80
[7] = dose: 200.0 mg/kg/injection, schedule: Q01DX009 (ip), vehicle: saline with Tween-80
[8] = dose: 400.0 mg/kg/injection, schedule: Q01DX009 (ip), vehicle: saline with Tween-80
[9] = dose: 100.0 mg/kg/injection, schedule: Q01DX009 (ip), vehicle: Klucel (hydroxypropylcellulose) (HPC)
[10] = dose: 100.0 mg/kg/injection, schedule: Q04DX003 (ip), vehicle: Klucel (hydroxypropylcellulose) (HPC)
[11] = dose: 200.0 mg/kg/injection, schedule: Q01DX009 (ip), vehicle: Klucel (hydroxypropylcellulose) (HPC)
[12] = dose: 200.0 mg/kg/injection, schedule: Q04DX003 (ip), vehicle: Klucel (hydroxypropylcellulose) (HPC)
[13] = dose: 400.0 mg/kg/injection, schedule: Q01DX009 (ip), vehicle: Klucel (hydroxypropylcellulose) (HPC)
[14] = dose: 400.0 mg/kg/injection, schedule: Q04DX003 (ip), vehicle: Klucel (hydroxypropylcellulose) (HPC)
[15] = dose: 100.0 mg/kg/injection, schedule: Q01DX001 (ip), vehicle: Klucel (hydroxypropylcellulose) (HPC)
[16] = dose: 200.0 mg/kg/injection, schedule: Q01DX001 (ip), vehicle: Klucel (hydroxypropylcellulose) (HPC)
[17] = dose: 400.0 mg/kg/injection, schedule: Q01DX001 (ip), vehicle: Klucel (hydroxypropylcellulose) (HPC)
[18] = dose: 100.0 mg/kg/injection, schedule: Q01DX001 (ip), vehicle: saline
[19] = dose: 200.0 mg/kg/injection, schedule: Q01DX001 (ip), vehicle: saline
[20] = dose: 400.0 mg/kg/injection, schedule: Q01DX001 (ip), vehicle: saline
[21] = dose: 50.0 mg/kg/injection, schedule: Q01DX009 (ip), vehicle: saline
[22] = dose: 100.0 mg/kg/injection, schedule: Q01DX009 (ip), vehicle: saline
[23] = dose: 200.0 mg/kg/injection, schedule: Q01DX009 (ip), vehicle: saline
[24] = dose: 100.0 mg/kg/injection, schedule: Q04DX002 (ip), vehicle: Klucel (hydroxypropylcellulose) (HPC)
[25] = dose: 200.0 mg/kg/injection, schedule: Q04DX002 (ip), vehicle: Klucel (hydroxypropylcellulose) (HPC)
[26] = dose: 400.0 mg/kg/injection, schedule: Q04DX002 (ip), vehicle: Klucel (hydroxypropylcellulose) (HPC)
[27] = dose: 100.0 mg/kg/injection, schedule: Q04DX002 (ip), vehicle: saline
[28] = dose: 200.0 mg/kg/injection, schedule: Q04DX002 (ip), vehicle: saline
[29] = dose: 400.0 mg/kg/injection, schedule: Q04DX002 (ip), vehicle: saline

Measured: T/C

CC(C)C(C=O)(CCN(C)Cc1ccccc1)c1cccc2ccccc12 (stereo unspecified)
inactive: [1] 93 % of control | [2] 92 % of control | [3] 100 % of control

CCOC(=O)CCCN(c1[nH]c(C)c(C)c1C#N)S(=O)(=O)c1ccc(C)cc1
inactive: [4] 93 % of control | [5] 93 % of control | [6] 96 % of control | [1] 90 % of control | [7] 90 % of control | [2] 101 % of control | [8] 100 % of control | [3] 95 % of control

CC1CCC(C(C)C)/C(=N/NC(=O)c2ccccc2)C1 (stereo unspecified)
inactive: [9] 98 % of control | [10] 104 % of control | [11] 93 % of control | [12] 102 % of control | [13] 86 % of control | [14] 102 % of control

NC(=O)Cc1ccccc1N
inactive: [15] 98 % of control | [16] 114 % of control | [17] 98 % of control

C1=CC2(CC1)OCCO2
inactive: [4] 106 % of control | [5] 91 % of control | [6] 104 % of control | [1] 102 % of control | [7] 106 % of control | [2] 92 % of control | [8] 104 % of control | [3] 102 % of control

CCCCCCCCCCCC[N+]1(C)CC[N+](C)(CCCCCCCCCCCC)CC1 (stereo unspecified)
inactive: dose: 100.0 mg/kg/injection, schedule: Q04DX002 (ip), vehicle: other 105 % of control | dose: 200.0 mg/kg/injection, schedule: Q04DX002 (ip), vehicle: other 101 % of control

CC(=O)CC(=O)N(C)c1ccccc1
inactive: dose: 75.0 mg/kg/injection, schedule: Q01DX001 (ip), vehicle: carboxymethylcellulose (CMC) 104 % of control | dose: 150.0 mg/kg/injection, schedule: Q01DX001 (ip), vehicle: carboxymethylcellulose (CMC) 105 % of control

O=c1c2ccccc2ncn1C1OC(CO)C(O)C1O (stereo unspecified)
inactive: [18] 96 % of control | [19] 102 % of control | [20] 104 % of control

C1OCOCO1
inactive: dose: 25.0 mg/kg/injection, schedule: Q01DX009 (ip), vehicle: saline 92 % of control | [21] 97 % of control | [22] 95 % of control | [23] 97 % of control

CCCCOP(=O)(NNP(=O)(OCCCC)OCCCC)OCCCC
inactive: dose: 100.0 mg/kg/injection, schedule: Q04DX002 (ip), vehicle: saline with Tween-80 108 % of control | dose: 200.0 mg/kg/injection, schedule: Q04DX002 (ip), vehicle: saline with Tween-80 116 % of control | dose: 400.0 mg/kg/injection, schedule: Q04DX002 (ip), vehicle: saline with Tween-80 105 % of control

O=C(Cc1cc2c(cc1[N+](=O)[O-])OCO2)c1c[nH]c2ccc(Br)cc12
inactive: dose: 50.0 mg/kg/injection, schedule: Q01DX001 (ip), vehicle: saline 98 % of control | [18] 92 % of control | [19] 98 % of control | [20] 95 % of control

O=C1C(=C(C(F)(F)F)C(F)(F)F)CCc2ccccc21
inactive: dose: 50.0 mg/kg/injection, schedule: Q01DX009 (ip), vehicle: Klucel (hydroxypropylcellulose) (HPC) 95 % of control | [15] 91 % of control | [9] 93 % of control | [16] 91 % of control

COc1ccc(S(=O)(=O)O)cc1NC(=O)CC(=O)c1cccc([N+](=O)[O-])c1
inactive: [18] 97 % of control | [19] 95 % of control | [20] 100 % of control

C/C=C1/C(=O)Oc2ccccc21
inactive: [21] 97 % of control | [22] 102 % of control | [23] 94 % of control

O=C(Cc1ccc(F)cc1)c1ccccc1
inactive: [1] 98 % of control | [2] 98 % of control | [3] 96 % of control

Cc1cccc(OC(=O)Nc2cccc(Cl)c2)c1C
inactive: [15] 94 % of control | [9] 94 % of control and 100 % of control | [24] 102 % of control and 105 % of control | [10] 101 % of control | [16] 92 % of control | [11] 98 % of control and 100 % of control | [25] 96 % of control and 98 % of control | [12] 97 % of control | [17] 92 % of control | [13] 94 % of control and 96 % of control | [26] 107 % of control and 109 % of control | [14] 93 % of control

CC(=O)NC1CCCCCCC1
inactive: dose: 100.0 mg/kg/injection, schedule: Q01DX005 (ip), vehicle: saline 103 % of control | [22] 108 % of control | [27] 100 % of control | dose: 200.0 mg/kg/injection, schedule: Q01DX005 (ip), vehicle: saline 109 % of control | [23] 102 % of control | [28] 110 % of control | dose: 400.0 mg/kg/injection, schedule: Q01DX005 (ip), vehicle: saline 109 % of control | dose: 400.0 mg/kg/injection, schedule: Q01DX009 (ip), vehicle: saline 115 % of control | [29] 100 % of control

CCCCCC(Oc1ccc(Cl)cc1C)C(=O)OCC (stereo unspecified)
inactive: [24] 90 % of control | [25] 87 % of control | [26] 107 % of control

COc1ccc2cc3[n+](cc2c1OC)CCc1cc2c(cc1-3)OCO2
inactive: dose: 3.12 mg/kg/injection, schedule: Q01DX009 (ip), vehicle: Klucel (hydroxypropylcellulose) (HPC) 110 % of control | dose: 5.0 mg/kg/injection, schedule: Q01DX001 (ip), vehicle: saline 103 % of control | dose: 6.25 mg/kg/injection, schedule: Q01DX009 (ip), vehicle: Klucel (hydroxypropylcellulose) (HPC) 117 % of control | dose: 10.0 mg/kg/injection, schedule: Q01DX001 (ip), vehicle: saline 109 % of control | dose: 12.0 mg/kg/injection, schedule: Q01DX Z (ip), vehicle: saline 114 % of control | dose: 12.5 mg/kg/injection, schedule: Q01DX009 (ip), vehicle: Klucel (hydroxypropylcellulose) (HPC) 101 % of control and 106 % of control | dose: 20.0 mg/kg/injection, schedule: Q01DX001 (ip), vehicle: saline 109 % of control

O=c1[nH]nnc2[nH]ncc12
inactive: [1] 102 % of control | [2] 104 % of control | [3] 98 % of control

O=C(O)COc1ccc(F)c(Cl)c1
inactive: [27] 105 % of control | [28] 117 % of control | [29] 110 % of control
